Source: patent US10894793B2, “Bicyclic pyridine, pyrazine, and pyrimidine derivatives as PI3K beta inhibitors” (Janssen Pharmaceutica NV, priority 2016, dated 2021)

Tests used:
[1] = system: Akt phosphorylated at Thr308 in PC-3 cells; test: Cellular assay: phosphorylation of Akt (Thr308) in PC-3 cells, MSD ELISA; format: cell-based; settings: Homo sapiens, PC-3, 1 h, 60 min compound incubation, read-out: IC50 pAkt_Thr308
Description: (§1) Cellular activity of PI3Kβ inhibitors was determined by quantifying the phosphorylation of Akt in PC-3 cells. Akt phosphorylated at Ser473 and Thr308 were measured using an enzyme-linked immunosorbent assay (ELISA; Meso Scale Discovery (MSD), Gaithersburg, Md.) and specific primary antibodies from MSD.
(§2) On day 1, PC3 cells (ATCC #[…]) were seeded into PerkinElmer MW96 plates at 25.000 cells per well, in 75 μl complete culture medium (DMEM high glucose, AQmedia™, D0819, Sigma-Aldrich) containing 10% heat inactivated FCS and incubated at 37° C., […] during 24 hours. On day 2, compound or DMSO (0.3%) was added and cells were further incubated for 60 min at 37° C., 5% CO2 in a total volume of 100 μl of medium.
(§3) The phosphoprotein assay was executed according to vendor instructions in the Phospho-Akt (Ser473) Assay Whole Cell Lysate Kit (MSD #K15100D-3) and the Phospho-Akt (Thr308) Assay Whole Cell Lysate Kit (MSD #K151DYD-3) using the lysis, blocking and wash buffer provided.
(§4) Briefly, at the end of the cell treatment period, media were removed by aspiration and adherent cells were lysed in 50 μl ice-cold lysis buffer. MSD plates are supplied pre-coated with capture antibodies for Phospho-Akt (Ser473 and Thr308). After blocking, lysates from tissue culture plates were added and plates were washed. Then, a solution containing the detection antibody (anti-total Akt conjugated with an electrochemiluminescent compound-MSD Sulfo-tag label) was added. The signals were detected using an MSD SECTOR Imager 6000 and are proportional to the phospho-Akt titres.
(§5) Data were processed. The percentage of inhibition was plotted against the log concentration of test compounds, and the sigmoidal log concentration-effect curve of best fit was calculated by nonlinear regression analysis. From these concentration-response curves, the IC50 values were calculated. Five concentrations were used for curve fitting.

[2] = system: Akt phosphorylated at Ser473 in PC-3 cells; test: Cellular assay: phosphorylation of Akt (Ser473) in PC-3 cells, MSD ELISA; format: cell-based; settings: Homo sapiens, PC-3, 1 h, 60 min compound incubation, read-out: IC50 pAkt_S473
Description: as §1, §2, §3, §4, §5

[3] = molecular target: T1, PIK3Cβ_h (Homo sapiens, UniProt P42338); test: Enzyme binding assay (KINOMEscan); settings: DiscoveRx
T1 construct: purchased DiscoveRx Corporation
T1 sequence (P42338 whole entry): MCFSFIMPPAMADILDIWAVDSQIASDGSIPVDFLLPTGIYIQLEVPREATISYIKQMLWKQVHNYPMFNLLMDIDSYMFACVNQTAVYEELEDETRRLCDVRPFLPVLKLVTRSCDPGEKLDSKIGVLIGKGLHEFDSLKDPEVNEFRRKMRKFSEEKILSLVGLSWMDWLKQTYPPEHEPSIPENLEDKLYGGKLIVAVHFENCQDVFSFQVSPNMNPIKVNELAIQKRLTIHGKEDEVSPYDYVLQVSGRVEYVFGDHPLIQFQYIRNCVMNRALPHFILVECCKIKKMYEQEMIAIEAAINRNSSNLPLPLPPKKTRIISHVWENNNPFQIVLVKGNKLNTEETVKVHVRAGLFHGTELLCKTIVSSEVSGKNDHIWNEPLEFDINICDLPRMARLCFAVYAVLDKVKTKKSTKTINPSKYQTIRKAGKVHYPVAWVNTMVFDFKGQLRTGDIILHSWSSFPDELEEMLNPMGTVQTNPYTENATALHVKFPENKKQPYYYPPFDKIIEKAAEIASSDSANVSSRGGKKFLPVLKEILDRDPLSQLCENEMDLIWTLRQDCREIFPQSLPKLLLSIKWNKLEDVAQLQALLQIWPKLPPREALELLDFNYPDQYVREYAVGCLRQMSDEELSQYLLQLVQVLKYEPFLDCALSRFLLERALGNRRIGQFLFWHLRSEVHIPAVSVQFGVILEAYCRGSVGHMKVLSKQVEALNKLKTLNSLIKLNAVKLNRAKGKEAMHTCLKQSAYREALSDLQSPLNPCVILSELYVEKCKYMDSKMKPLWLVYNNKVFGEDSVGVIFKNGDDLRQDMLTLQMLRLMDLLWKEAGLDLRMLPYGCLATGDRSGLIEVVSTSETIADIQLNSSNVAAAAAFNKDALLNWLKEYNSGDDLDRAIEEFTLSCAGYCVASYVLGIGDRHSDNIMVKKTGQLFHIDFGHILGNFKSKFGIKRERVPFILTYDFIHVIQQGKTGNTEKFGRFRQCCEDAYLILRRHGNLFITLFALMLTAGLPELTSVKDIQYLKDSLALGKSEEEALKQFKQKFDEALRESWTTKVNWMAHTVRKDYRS
Description: (§6) Enzyme Binding Assays (KINOMEscan®)
(§7) Kinase enzyme binding affinities of compounds disclosed herein were determined using the KINOMEscan technology performed by DiscoveRx Corporation, San Diego, Calif., USA (www.kinomescan.com). Table A reports the obtained Kd values (nM), with the Kd being the inhibitor binding constant: […]

[4] = molecular target: T2, PIK3Cδ_h (Homo sapiens, UniProt O00329); test: Enzyme binding assay (KINOMEscan); settings: DiscoveRx
T2 construct: purchased DiscoveRx Corporation
T2 sequence (O00329 1-1044): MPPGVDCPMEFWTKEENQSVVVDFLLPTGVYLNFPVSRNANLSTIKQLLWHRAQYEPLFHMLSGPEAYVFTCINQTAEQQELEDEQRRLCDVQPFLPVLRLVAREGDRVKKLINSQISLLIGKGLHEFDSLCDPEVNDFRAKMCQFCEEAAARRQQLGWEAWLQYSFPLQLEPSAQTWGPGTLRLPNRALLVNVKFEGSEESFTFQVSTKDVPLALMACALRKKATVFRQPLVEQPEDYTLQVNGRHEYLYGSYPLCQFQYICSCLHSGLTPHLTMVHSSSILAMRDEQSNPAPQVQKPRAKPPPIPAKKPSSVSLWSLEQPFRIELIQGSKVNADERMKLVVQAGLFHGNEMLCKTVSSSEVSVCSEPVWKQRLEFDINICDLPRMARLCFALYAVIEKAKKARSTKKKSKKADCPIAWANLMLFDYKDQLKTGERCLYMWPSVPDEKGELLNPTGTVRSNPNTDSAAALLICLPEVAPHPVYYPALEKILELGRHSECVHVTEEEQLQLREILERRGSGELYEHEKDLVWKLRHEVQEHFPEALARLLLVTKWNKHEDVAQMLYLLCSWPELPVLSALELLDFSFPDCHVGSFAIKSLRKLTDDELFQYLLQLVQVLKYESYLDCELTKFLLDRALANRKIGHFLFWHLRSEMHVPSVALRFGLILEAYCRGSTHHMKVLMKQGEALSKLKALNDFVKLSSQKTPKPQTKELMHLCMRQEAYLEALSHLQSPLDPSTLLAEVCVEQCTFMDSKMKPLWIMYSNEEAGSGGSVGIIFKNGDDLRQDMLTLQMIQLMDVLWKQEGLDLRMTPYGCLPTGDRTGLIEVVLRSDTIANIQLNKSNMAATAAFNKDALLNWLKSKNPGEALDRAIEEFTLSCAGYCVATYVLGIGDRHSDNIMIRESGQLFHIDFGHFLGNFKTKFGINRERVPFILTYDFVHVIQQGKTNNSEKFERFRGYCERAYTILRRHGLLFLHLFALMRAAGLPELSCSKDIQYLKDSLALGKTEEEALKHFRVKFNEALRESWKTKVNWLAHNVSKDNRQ
Description: as §6, §7

[5] = molecular target: T3, MTOR_h (Homo sapiens, UniProt P42345); test: Enzyme binding assay (KINOMEscan); settings: DiscoveRx
T3 construct: purchased DiscoveRx Corporation
Description: as §6, §7

[6] = molecular target: T4, PIK3Cα_h (Homo sapiens, UniProt P42336); test: Enzyme binding assay (KINOMEscan); settings: DiscoveRx
T4 construct: purchased DiscoveRx Corporation
T4 sequence (P42336 whole entry): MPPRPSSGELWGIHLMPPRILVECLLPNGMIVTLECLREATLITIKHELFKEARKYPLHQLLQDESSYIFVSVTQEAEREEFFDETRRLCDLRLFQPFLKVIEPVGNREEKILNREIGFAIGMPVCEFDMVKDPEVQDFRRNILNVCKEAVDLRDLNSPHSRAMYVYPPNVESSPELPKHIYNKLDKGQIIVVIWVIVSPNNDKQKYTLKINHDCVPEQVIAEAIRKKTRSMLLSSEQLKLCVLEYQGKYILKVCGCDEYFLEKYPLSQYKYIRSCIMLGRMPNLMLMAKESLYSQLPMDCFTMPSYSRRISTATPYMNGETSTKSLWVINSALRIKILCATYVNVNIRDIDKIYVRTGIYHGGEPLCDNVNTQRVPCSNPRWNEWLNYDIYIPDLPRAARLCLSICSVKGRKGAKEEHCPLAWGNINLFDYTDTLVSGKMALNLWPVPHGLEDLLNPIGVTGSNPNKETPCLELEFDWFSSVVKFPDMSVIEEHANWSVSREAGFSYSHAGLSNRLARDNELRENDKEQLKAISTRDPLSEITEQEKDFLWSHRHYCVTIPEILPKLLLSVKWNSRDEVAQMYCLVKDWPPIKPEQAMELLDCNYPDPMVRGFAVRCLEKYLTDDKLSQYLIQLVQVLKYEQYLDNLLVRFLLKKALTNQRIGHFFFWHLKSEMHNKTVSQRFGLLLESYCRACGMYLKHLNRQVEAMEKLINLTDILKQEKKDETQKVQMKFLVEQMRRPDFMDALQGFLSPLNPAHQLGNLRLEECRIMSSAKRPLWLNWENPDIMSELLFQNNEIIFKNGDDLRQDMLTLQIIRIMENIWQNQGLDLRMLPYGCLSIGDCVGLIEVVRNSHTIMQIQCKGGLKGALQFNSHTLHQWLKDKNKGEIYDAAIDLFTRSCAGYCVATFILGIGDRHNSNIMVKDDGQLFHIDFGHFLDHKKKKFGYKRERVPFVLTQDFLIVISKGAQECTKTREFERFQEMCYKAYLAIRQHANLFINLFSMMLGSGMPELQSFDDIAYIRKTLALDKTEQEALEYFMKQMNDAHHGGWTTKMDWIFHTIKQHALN
Description: as §6, §7

[7] = molecular target: T5, PIK3Cγ_h (Homo sapiens, UniProt P48736); test: Enzyme binding assay (KINOMEscan); settings: DiscoveRx
T5 construct: purchased DiscoveRx Corporation
T5 sequence (P48736 whole entry): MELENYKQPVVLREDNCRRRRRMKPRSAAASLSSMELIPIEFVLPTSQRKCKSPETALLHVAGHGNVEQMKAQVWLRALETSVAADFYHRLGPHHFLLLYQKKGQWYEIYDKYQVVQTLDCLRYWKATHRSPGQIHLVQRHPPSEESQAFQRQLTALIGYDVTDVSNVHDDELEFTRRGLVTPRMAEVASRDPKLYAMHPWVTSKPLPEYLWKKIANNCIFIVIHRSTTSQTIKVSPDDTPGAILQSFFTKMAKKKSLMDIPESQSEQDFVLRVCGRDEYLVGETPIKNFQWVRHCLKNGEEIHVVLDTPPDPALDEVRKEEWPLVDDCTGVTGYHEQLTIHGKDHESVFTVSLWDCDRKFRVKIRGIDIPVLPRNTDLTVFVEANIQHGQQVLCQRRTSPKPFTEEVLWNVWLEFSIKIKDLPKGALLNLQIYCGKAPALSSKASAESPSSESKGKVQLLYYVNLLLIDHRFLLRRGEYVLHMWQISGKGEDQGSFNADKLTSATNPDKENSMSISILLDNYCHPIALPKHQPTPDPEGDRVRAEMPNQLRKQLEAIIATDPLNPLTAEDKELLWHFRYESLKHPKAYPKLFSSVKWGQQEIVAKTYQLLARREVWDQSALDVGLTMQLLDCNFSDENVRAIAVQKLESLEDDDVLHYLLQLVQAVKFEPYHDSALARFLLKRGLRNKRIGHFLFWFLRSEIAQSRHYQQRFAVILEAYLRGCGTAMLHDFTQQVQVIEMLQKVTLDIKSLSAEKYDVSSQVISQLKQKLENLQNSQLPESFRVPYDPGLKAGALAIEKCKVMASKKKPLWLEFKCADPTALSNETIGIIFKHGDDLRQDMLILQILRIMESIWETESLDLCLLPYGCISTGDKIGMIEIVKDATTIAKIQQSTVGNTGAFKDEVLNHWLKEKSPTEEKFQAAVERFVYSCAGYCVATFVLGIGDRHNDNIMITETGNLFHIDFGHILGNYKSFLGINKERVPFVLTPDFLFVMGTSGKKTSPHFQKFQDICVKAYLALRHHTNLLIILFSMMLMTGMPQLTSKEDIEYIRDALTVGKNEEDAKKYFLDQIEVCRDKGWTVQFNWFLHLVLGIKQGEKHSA
Description: as §6, §7

SMILES	IC50 [1]	IC50 [2]	melting point	Kd [3]	Kd [4]	Kd [5]	Kd [6]	Kd [7]
Cc1c(Cc2c(C(=O)N3C[C@@H](C)N[C@@H](C)C3)nc3ncc(N4CCOCC4)cn23)cccc1C(F)(F)F [Compound 23]	~219 nM	389 nM	130 °C	8.7 nM	1480 nM	> 30.2 µM	> 30200 nM	> 30.2 µM
Cc1nc2c(C(N)=O)nc(C3=CCOCC3)cn2c1Cc1cccc(C(F)(F)F)c1C [Compound 5]	~65 nM	~87 nM	257 °C	4.7 nM	891 nM	12.3 µM	1820 nM	6.31 µM
Cc1c(Cc2c(CN3CC4(C3)CS(=O)(=O)C4)nc3ncc(N4CCOCC4)cn23)cccc1C(F)(F)F [Compound 21]	17 nM	15 nM	228 °C	0.4 nM	123 nM	> 30.2 µM	1480 nM	> 30.2 µM
CCOC(=O)Cc1nc2cnc(N3CCOCC3)cn2c1Cc1cccc(C(F)(F)F)c1C [Compound 17]			135 °C					
OCc1nc2ncc(N3CCOCC3)cn2c1Cc1cccc(F)c1C1CCNCC1 [Compound 49]	> 513 nM	> 513 nM	224 °C	15 nM	2240 nM	> 30.2 µM	2570 nM	15.8 µM
Cc1nc2c(-c3ccn[nH]3)nc(C3=CCOCC3)cn2c1Cc1cccc(C(F)(F)F)c1C [Compound 1]	7 nM	14 nM	240 °C	1.6 nM	69 nM	0.935 µM	288 nM	1.06 µM
Cc1c(Cc2c(CN3CCS(=O)(=O)CC3)nc3ncc(N4CCOCC4)cn23)cccc1C(F)(F)F [Compound 22]	~79 nM	214 nM	225 °C	3.1 nM	631 nM	> 30.2 µM	1440 nM	> 30.2 µM
CN1CCC(c2c(F)cccc2Cc2c(CO)nc3ncc(N4CCOCC4)cn23)CC1 [Compound 48]	> 513 nM	> 513 nM	222 °C	49 nM	4790 nM	> 30.2 µM	9550 nM	12.9 µM
Cc1nc2c(-c3c[nH]cn3)nc(C3=CCOCC3)cn2c1Cc1cccc(C(F)(F)F)c1C [Compound 6]	59 nM	185 nM	197 °C	5.5 nM	682 nM	2.17 µM	343 nM	4.7 µM
Cc1c(Cc2c(CO)nc3c(N)cc(C4=CCOCC4)cn23)cccc1C(F)(F)F [Compound 46]	18 nM	32 nM	223 °C	16 nM	1060 nM	5.89 µM	8430 nM	6.46 µM
Cc1c(Cc2c(CCO)nc3cnc(N4CCOCC4)cn23)cccc1C(F)(F)F [Compound 13]	> 513 nM	> 513 nM	142 °C	126 nM	14100 nM	> 30.2 µM	20400 nM	> 30.2 µM
Cc1c(Cc2c(CN3C[C@@H](C)N[C@@H](C)C3)nc3ncc(N4CCOCC4)cn23)cccc1C(F)(F)F [Compound 19]	186 nM	380 nM	263 °C	4.2 nM	1230 nM	> 30.2 µM	16600 nM	> 30.2 µM
Cc1c(Cc2c(CN3CCC(CO)CC3)nc3cnc(N4CCOCC4)cn23)cccc1C(F)(F)F [Compound 10]	> 513 nM	> 513 nM	198 °C	41 nM	4270 nM	> 30.2 µM	> 30200 nM	> 30.2 µM
Cc1c(Cc2c(CO)nc3c(-c4c[nH]cn4)cc(C4=CCOCC4)cn23)cccc1C(F)(F)F [Compound 41]	14 nM	14 nM		1.1 nM	13 nM	0.2 µM	96 nM	0.324 µM
